Test results from PubChem BioAssay AID1963958 (Molecular Pharmacology Branch, DTP, NCI, 2024).
Values belong to the compound of their own block, whether it stands above or below them.

System: MDA-MB-231 multicell spheroids, viability
Assay: Anticancer human tumor MDA-MB-231 cell line growth inhibition [PI3K];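 note: spheroids exposed to agents for seven days before reading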;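 for viability, T/C: percent of vehicle control luminescence with DMSO treated spheroids as 100%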
Conditions: for IC50: curve of first compound; for viability, T/C: stronger effect = lower value
Source text: Combinatorial screen of targeted agents with the PI3K inhibitors inavolisib, alpelisib, duvelisib, and copanlisib in multi-cell type tumor spheroids
A high-throughput screen of multi-cell type tumor spheroids was designed to identify active combinations of targeted small molecules and PI3K pathway inhibitors. Complex spheroids include a stromal component modeled by human endothelial cells (HUVEC) and fibroblasts modeled by human mesenchymal stem cells (MSCs). The concentration ranges selected for each drug and investigational agent were based upon clinically achievable concentrations if the clinical Cmax of the agent was known.
Compounds. The drugs and investigational agents: inavolisib (NSC800729), alpelisib (NSC765974), duvelisib (NSC772469), copanlisib (NSC816437), ipatasertib (NSC767898), afuresertib (NSC778305), talazoparib (NSC767125), sapanisertib (NSC764658), selumetinib (NSC741078), tovorafenib (DAY101, NSC766906), vemurafenib (NSC761431), ravoxertinib (NSC781343), sotorasib (NSC818433), MRTX1133 (NSC 836407), abemaciclib (NSC 768073), palbociclib (NSC758247), venetoclax (NSC 766270), SY5609 (NSC837396), enzalutamide (NSC755605), and darolutamide (NSC825331), were obtained from the National Cancer Institute (NCI) Developmental Therapeutics Program Chemical Repository. The FDA-approved anticancer drug set is available from the NCI Developmental Therapeutics Program. […] The stock solutions were prepared in dimethyl sulfoxide (DMSO, Sigma-Aldrich, St. Louis, MO, cat. D2650) at 800-fold the tested concentration and stored at -70 degrees C prior to their use. All drugs and investigational agents were tested over a range starting from a high concentration at or near the clinical Cmax and decreasing in half-log increments. If the clinical Cmax for an agent had not been determined, the highest concentration tested was 10 microM.
Cell Culture. All cells were maintained in an incubator at 37 degrees C and 5% CO2 with 95% humidity. The PDC lines were cultured according to standard operating procedures established by the NCI PDMR (https://pdmr.cancer.gov/sops/default.htm). All PDCs were thawed and cultured in Matrigel-coated flasks prepared with a working solution of 1X Ham's F-12 nutrient mix, without supplementation (Invitrogen, Waltham, MA, cat. 11765054), 100 U/mL penicillin-streptomycin (Invitrogen, cat. 15140122), and 2.5% Matrigel (Corning Inc., Corning, NY, cat. 354248) for the first three passages. The 354836-022-R-J1-PDC, 475296-252-R-J1-PDC, and 997726-040-R-J2-PDC lines were cultured in 6A media, which includes advanced DMEM/F-12 (Thermo Fisher Scientific, cat. 12634028), 10 mM HEPES (Thermo Fisher Scientific, cat. 15630080), 1X GlutaMAX supplement (Thermo Fisher Scientific, cat. 35050061), 0.1 mg/mL primocin (InvivoGen, San Diego, CA, cat. ant-pm-2), 10% defined fetal bovine serum, heat inactivated (HyClone Laboratories Inc., Logan, UT, cat. SH30070.03HI), 50% L-WRN conditioned media (ATCC, cat. CRL-3276), 1.25 mM N-Acetyl-L-cysteine (Sigma-Aldrich, cat. A9165), 10 mM nicotinamide (Sigma-Aldrich, cat. N0636), 1X B-27 supplement (Thermo Fisher Scientific, cat. 17504044), 1X N-2 supplement (Thermo Fisher Scientific, cat. 17502048), and 10 microM Y-27632 dihydrochloride (Tocris Bioscience, Bristol, United Kingdom, cat. 1254). The 624824-186-R-J2-PDC line was cultured in 6C/Colon 1B media, which includes all 6A media components plus 50 ng/mL human EGF recombinant protein (Thermo Fisher Scientific, cat. PHG0311). […]

[1] = second compound 0.0316 µM, first compound 0.0316 µM
[2] = second compound 0.0316 µM, first compound 0.1 µM
[3] = second compound 0.0316 µM, first compound 0.316 µM
[4] = second compound 0.0316 µM, first compound 1 µM
[5] = second compound 0.0316 µM, first compound 3.16 µM
[6] = second compound 0.0316 µM, first compound 10 µM
[7] = second compound 0.1 µM, first compound 0.0316 µM
[8] = second compound 0.1 µM, first compound 0.1 µM
[9] = second compound 0.1 µM, first compound 0.316 µM
[10] = second compound 0.1 µM, first compound 1 µM
[11] = second compound 0.1 µM, first compound 3.16 µM
[12] = second compound 0.1 µM, first compound 10 µM
[13] = second compound 0.316 µM, first compound 0.0316 µM
[14] = second compound 0.316 µM, first compound 0.1 µM
[15] = second compound 0.316 µM, first compound 0.316 µM
[16] = second compound 0.316 µM, first compound 1 µM
[17] = second compound 0.316 µM, first compound 3.16 µM
[18] = second compound 0.316 µM, first compound 10 µM
[19] = second compound 1 µM, first compound 0.0316 µM
[20] = second compound 1 µM, first compound 0.1 µM
[21] = second compound 1 µM, first compound 0.316 µM
[22] = second compound 1 µM, first compound 1 µM
[23] = second compound 1 µM, first compound 3.16 µM
[24] = second compound 1 µM, first compound 10 µM

IC50 (second compound 0.0316 µM): > 10000 nM | IC50 (second compound 0.1 µM): > 10000 nM | IC50 (second compound 0.316 µM): > 10000 nM | IC50 (second compound 1 µM): > 10000 nM | IC50 (second compound 3.16 µM): > 10000 nM | IC50 (second compound 10 µM): > 10000 nM
SMILES: C=CC(=O)N1CCN(c2nc(=O)n(-c3c(C)ccnc3C(C)C)c3nc(-c4c(O)cccc4F)c(F)cc23)C(C)C1 (centres undefined) + CC(Nc1ncnc2nc[nH]c12)c1cc2cccc(Cl)c2c(=O)n1-c1ccccc1
viability, T/C [1]: 104% | viability, T/C [2]: 110% | viability, T/C [3]: 115% | viability, T/C [4]: 134% | viability, T/C [5]: 131% | viability, T/C [6]: 118% | viability, T/C [7]: 111% | viability, T/C [8]: 103% | viability, T/C [9]: 113% | viability, T/C [10]: 132% | viability, T/C [11]: 131% | viability, T/C [12]: 118% | viability, T/C [13]: 101% | viability, T/C [14]: 98.7% | viability, T/C [15]: 111% | viability, T/C [16]: 115% | viability, T/C [17]: 133% | viability, T/C [18]: 114% | viability, T/C [19]: 86.9% | viability, T/C [20]: 90.1% | viability, T/C [21]: 95.7% | viability, T/C [22]: 106% | viability, T/C [23]: 108% | viability, T/C [24]: 96% | viability, T/C (second compound 3.16 µM, first compound 0.0316 µM): 66.5% | viability, T/C (second compound 3.16 µM, first compound 0.1 µM): 70.9% | viability, T/C (second compound 3.16 µM, first compound 0.316 µM): 73.5% | viability, T/C (second compound 3.16 µM, first compound 1 µM): 79.5% | viability, T/C (second compound 3.16 µM, first compound 3.16 µM): 88.2% | viability, T/C (second compound 3.16 µM, first compound 10 µM): 78.4% | viability, T/C (second compound 10 µM, first compound 0.0316 µM): 51% | viability, T/C (second compound 10 µM, first compound 0.1 µM): 52.5% | viability, T/C (second compound 10 µM, first compound 0.316 µM): 55.5% | viability, T/C (second compound 10 µM, first compound 1 µM): 59% | viability, T/C (second compound 10 µM, first compound 3.16 µM): 58.5% | viability, T/C (second compound 10 µM, first compound 10 µM): 54.6%

IC50 (second compound 0.00316 µM): 467 nM | IC50 (second compound 0.01 µM): 222 nM | IC50 (second compound 0.0316 µM): 48.2 nM | IC50 (second compound 0.1 µM): < 31.6 nM | IC50 (second compound 0.316 µM): < 31.6 nM | IC50 (second compound 1 µM): < 31.6 nM
SMILES: Cn1nccc1Nc1nccc(-c2ccn(C(CO)c3ccc(Cl)c(F)c3)c(=O)c2)n1 (centres undefined) + COc1c(OCCCN2CCOCC2)ccc2c3n(c(=NC(=O)c4cnc(N)nc4)nc12)CCN3
viability, T/C (second compound 0.00316 µM, first compound 0.0316 µM): 74.5% | viability, T/C (second compound 0.00316 µM, first compound 0.1 µM): 69.9% | viability, T/C (second compound 0.00316 µM, first compound 0.316 µM): 48.3% | viability, T/C (second compound 0.00316 µM, first compound 1 µM): 44% | viability, T/C (second compound 0.00316 µM, first compound 3.16 µM): 37.7% | viability, T/C (second compound 0.00316 µM, first compound 10 µM): 28% | viability, T/C (second compound 0.01 µM, first compound 0.0316 µM): 65.9% | viability, T/C (second compound 0.01 µM, first compound 0.1 µM): 58.6% | viability, T/C (second compound 0.01 µM, first compound 0.316 µM): 46% | viability, T/C (second compound 0.01 µM, first compound 1 µM): 34.8% | viability, T/C (second compound 0.01 µM, first compound 3.16 µM): 28.3% | viability, T/C (second compound 0.01 µM, first compound 10 µM): 23.5% | viability, T/C [1]: 50.3% | viability, T/C [2]: 48.9% | viability, T/C [3]: 41.8% | viability, T/C [4]: 32.5% | viability, T/C [5]: 26.6% | viability, T/C [6]: 20.4% | viability, T/C [7]: 41.6% | viability, T/C [8]: 34.3% | viability, T/C [9]: 29.3% | viability, T/C [10]: 25.9% | viability, T/C [11]: 22.4% | viability, T/C [12]: 13.1% | viability, T/C [13]: 25.8% | viability, T/C [14]: 22.8% | viability, T/C [15]: 17.8% | viability, T/C [16]: 17% | viability, T/C [17]: 13.2% | viability, T/C [18]: 8.91% | viability, T/C [19]: 20.8% | viability, T/C [20]: 16.8% | viability, T/C [21]: 13.8% | viability, T/C [22]: 12.7% | viability, T/C [23]: 10.5% | viability, T/C [24]: 7.95%
